Measured values: patent US20040028749A1, “Treating inflammation and associated complications” (priority 2000, published 2004)

Target: MPO (Homo sapiens, UniProt P05164)
Experiment: Stopped-flow kinetics of NO with MPO
Format: biochemical
Design: MPO was initially purified from detergent extracts of human leukocytes; from tissue; host or cells: human leukocytes (detergent extracts)
Method: […] EPO was isolated from porcine whole blood obtained fresh at the slaughterhouse as described by Jorg et al. (1982) Biochim Biophys Acta 701:185-191. EPO was assayed by guaiacol oxidation (see Klebanoff et al. (1984) Methods Enzymol. 105:399-403). […] The concentration of the MPO dimer was calculated as half the indicated concentration of heme-like chromophore. Bovine LPO was obtained from Worthington Biochemistry Corporation (Lakewood, N.J.) and used without further purification.
To examine the kinetics of interaction between NO and MPO Compounds I and II, stopped-flow spectroscopy was used. The kinetics of Compound II formation and decay in the absence and presence of different NO concentrations were performed using a dual syringe stopped-flow instrument obtained from Hi-Tech Ltd (model SF-51). Measurements were carried out under anaerobic atmosphere, at 25° C. and monitored at 455 nm (an isosbestic point of Compound I and MPO ground state) following rapid mixing of equal volumes of an H202-containing buffer solution and an MPO solution that contained different NO concentrations. The time course of absorbance change was fit to either single or double exponential functions as indicated. The rate constants for the formation (kon) and decay (koff) of the MPO-Fe(III)-NO complex in the presence of plasma levels of the alternative substrate Cl^− (100 mM) were determined by monitoring absorbance change at 430 nm at 10° C. […]
Rapid kinetic studies were initially performed under Cl^− free conditions using 2 co-substrates, a fixed (low) level of H2O2 and variable levels of NO. […] The subsequent decrease in absorbance at 455 nm observed was also fit to a single exponential function with a rate constant of […] and was attributed to the decay of compound II.
(An anaerobic solution containing sodium phosphate buffer (200 mM, pH 7.0) supplemented with H2O2 (20 μM) was rapidly mixed with an equal volume of buffer containing 0.86 μM of MPO-Fe(III) and differing concentrations of NO at 25° C.) NO was readily used as a one e^− substrate by Compound I, as indicated by the rapid buildup of MPO Compound II. […]
In a parallel series of experiments, the influence of NO on the kinetics of MPO Compound II buildup, duration, and decay during steady-state catalysis in the presence of plasma levels of the competing substrate Cl^− was examined. Reactions were again performed under anaerobic conditions and the absorbance change at 455 nm monitored following rapid mixing of enzyme and various concentrations of NO (2.5, 12.5, 25 and 50 μM final) in the presence of H202 (10 μM final) and Cl^− (100 mM final). Anaerobic spectra of MPO-Fe(III) were recorded at 25° C. in septum-sealed quartz cuvettes that were equipped with a quick-fit joint for attachment to a vacuum system. […]

MPO, sequence (P05164 279-745 limits assumed): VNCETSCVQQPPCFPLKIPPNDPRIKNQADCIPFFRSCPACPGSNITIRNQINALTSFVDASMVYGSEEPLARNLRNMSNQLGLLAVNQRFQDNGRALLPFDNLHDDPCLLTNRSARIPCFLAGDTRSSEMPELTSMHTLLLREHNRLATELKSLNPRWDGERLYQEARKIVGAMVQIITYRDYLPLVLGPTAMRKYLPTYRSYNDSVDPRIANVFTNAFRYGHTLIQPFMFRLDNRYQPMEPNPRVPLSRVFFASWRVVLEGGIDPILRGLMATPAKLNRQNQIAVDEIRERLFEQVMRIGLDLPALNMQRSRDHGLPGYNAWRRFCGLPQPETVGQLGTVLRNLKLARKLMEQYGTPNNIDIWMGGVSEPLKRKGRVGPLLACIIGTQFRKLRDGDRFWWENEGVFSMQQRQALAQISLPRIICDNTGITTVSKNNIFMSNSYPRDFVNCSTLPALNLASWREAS
MPO, sequence (P05164 165-273 limits assumed): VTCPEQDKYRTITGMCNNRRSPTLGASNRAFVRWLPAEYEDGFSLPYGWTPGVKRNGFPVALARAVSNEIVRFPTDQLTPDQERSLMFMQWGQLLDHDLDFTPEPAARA

Compound: [N]=O [NO, nitric oxide]
- enhancement of rate of MPO Compound II accumulation (10 μM H2O2, Cl^− free, 25° C.): ~20 fold
- koff (100 mM Cl^−, 11° C., read-out: koff for NO binding to MPO-Fe(III)): 22.3 s⁻¹
- kon (100 mM Cl^−, 11° C., read-out: kon for NO binding to MPO-Fe(III)): 150000 M⁻¹ s⁻¹
- second order rate constant of MPO Compound II decay (Cl^− free, 25° C.): 8×10^3 M^−1S^−1
